In test [1] the target is KRAS protein subtype G12D (Homo sapiens, UniProt P01116, G12D). Put plainly: Affinity for KRAS protein subtype G12D by SPR method (Biacore 8K). The note with it: biotinylated Avi-KRAS-G12D, single-cycle kinetic mode, 1:1 model. In kind it is binding. How it is done: (§1) Biotinylated Avi-KRAS-WT or Avi-KRAS-G12D was diluted to 20 µg/mL with a 1× HBS-P+ (Cat. # BR1006-71) buffer containing 100 mM MgCl2 and then allowed to flow through channel 2 of an SA (Cat. # BR1005-31) biosensor chip for 420 s to obtain a coupling level of approximately 5000-7000 RU. Then samples of the compound were injected sequentially in descending order for 120 s, followed by 720 s of dissociation. The testing was performed using a single-cycle kinetic mode. Reaction signals were detected in real time using a Biacore 8K instrument to obtain association and dissociation curves. After the testing was finished, data analysis was performed using Biacore 8K evaluation software. Data fitting was performed using a 1:1 model, and affinity data were obtained.
(Surface plasmon resonance follows binding to a sensor surface in real time, without labels.)

The subject of a further test is AGS cells. Put plainly: Inhibition of 3D proliferation of AGS cells (CellTiter-Glo 3D). Type of test: cell-based. The conditions noted are these: Homo sapiens, 120 h incubation. How it is done: (§2) The inhibitory effect of the compound represented by formula I on the KRAS target was evaluated by assessing the inhibitory effect of the compound represented by formula I on the 3D proliferation of GP2d and AGS cells.
AGS cells (Nanjing Cobioer, CBP60476) were cultured in a complete culture medium, namely an RPMI1640 medium (Hyclone, SH30809.01) containing 10% fetal bovine serum (Corning, 35-076-CV). On the first day of the experiment, the AGS cells were seeded into a 96-well low-adsorption plate (Corning, CLS7007-24EA) with a complete culture medium at a density of 1000 cells/well, with each well containing 90 µL of a cell suspension. The plate was centrifuged at 2000 rpm for 5 min at room temperature and then incubated overnight in a cell incubator at 37 °C with 5% CO2.
The next day, the test compound, serially diluted in a complete culture medium, was added at 10 µL/well. The final concentrations of the compound for GP2d cells were 9 concentration points obtained by 3-fold serial dilution from 1 µM, and the final concentrations of the compound for AGS cells were 9 concentration points obtained by 3-fold serial dilution from 10 µM. A blank control containing 0.5% DMSO was set for both types of cells. The plates were incubated in a cell incubator at 37 °C with 5% CO2 for 120 h. […] The luminescence signal values were obtained using a multimode microplate reader (PerkinElmer, ENVISION). […]
In general terms: Cellular ATP, detected with luciferase, serves as a proxy for viable cell number.

The subject of a further test is GP2d cells. The test can be described thus: Inhibition of 3D proliferation of GP2d cells (CellTiter-Glo 3D). The conditions noted are these: 120 h incubation. In kind it is cell-based. How it is done:
as §2
GP2d cells (Nanjing Cobioer, CBP60010) were cultured in a complete culture medium, namely a DMEM/high glucose culture medium (Hyclone, SH30243.01) containing 10% fetal bovine serum (Corning, 35-076-CV). On the first day of the experiment, the GP2d cells were seeded into a 96-well low-adsorption plate (Corning, CLS7007-24EA) with a complete culture medium at a density of 1000 cells/well, with each well containing 90 µL of a cell suspension. The plate was centrifuged at 2000 rpm for 5 min at room temperature and then incubated overnight in a cell incubator at 37 °C with 5% CO2.
The next day, the test compound, serially diluted in a complete culture medium, was added at 10 µL/well. The final concentrations of the compound for GP2d cells were 9 concentration points obtained by 3-fold serial dilution from 1 µM, and the final concentrations of the compound for AGS cells were 9 concentration points obtained by 3-fold serial dilution from 10 µM. A blank control containing 0.5% DMSO was set for both types of cells. […] The luminescence signal values were obtained using a multimode microplate reader (PerkinElmer, ENVISION). […]

For test [2], the system named is ERK phosphorylation in AGS cells. The test can be described thus: Inhibition of ERK phosphorylation in AGS cells (HTRF method). In kind it is cell-based. The note with it: Homo sapiens, 1 h incubation with compound, phosphorylated ERK/total ERK ratio. How it is done:
In the experiment, the inhibitory effect of the compound represented by formula I on the KRAS target was evaluated by assessing the inhibitory effect of the compound on ERK phosphorylation in cells and based on the IC50.
AGS cells (Nanjing Cobioer, CBP60476) were cultured in an RPMI1640 (Hyclone, SH30809.01) complete culture medium containing 10% fetal bovine serum. On the first day of the experiment, the AGS cells were seeded into a 96-well plate with a complete culture medium at a density of 40,000 cells/well, with each well containing 190 µL of a cell suspension. The plate was incubated overnight in a cell incubator at 37 °C with 5% CO2.
The next day, the test compound, serially diluted in a complete culture medium, was added at 10 µL/well. The final concentrations of the compound were 9 concentration points obtained by 5-fold serial dilution from 10 µM. A blank control containing 0.5% DMSO was set. The plate was incubated in a cell incubator at 37 °C with 5% CO2 for 1 h. […]
On the third day, the fluorescence values at an excitation wavelength of 337 nm and emission wavelengths of 665 nm and 620 nm were obtained using an ENVISION multimode microplate reader (PerkinElmer, ENVISION).
The IC50 value for the inhibitory activity of the compound was calculated using Graphpad Prism software based on the compound concentration and the phosphorylated ERK/total ERK ratio. […]

A further test deals with KRAS protein subtype WT (Homo sapiens, UniProt P01116). Put plainly: Affinity for KRAS protein subtype WT by SPR method (Biacore 8K). Type of test: binding. The note with it: biotinylated Avi-KRAS-WT, single-cycle kinetic mode, 1:1 model. How it is done: as §1
KRAS protein subtype WT, sequence (P01116 1-188 isoform P01116-2): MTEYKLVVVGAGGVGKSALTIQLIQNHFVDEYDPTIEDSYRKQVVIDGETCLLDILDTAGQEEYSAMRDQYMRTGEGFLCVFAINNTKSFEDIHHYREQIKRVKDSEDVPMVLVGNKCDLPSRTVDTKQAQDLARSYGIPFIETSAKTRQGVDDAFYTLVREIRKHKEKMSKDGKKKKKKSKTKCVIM

KRAS protein subtype G12D, sequence (P01116 1-188 isoform P01116-2 G12D): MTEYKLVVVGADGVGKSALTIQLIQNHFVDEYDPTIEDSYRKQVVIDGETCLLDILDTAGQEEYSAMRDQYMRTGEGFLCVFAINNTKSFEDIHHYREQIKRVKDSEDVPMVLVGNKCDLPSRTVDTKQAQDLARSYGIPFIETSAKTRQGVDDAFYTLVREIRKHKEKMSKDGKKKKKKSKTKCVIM

Broadly, the Kd is the equilibrium constant for the complex coming apart. As usually defined, the IC50 is the concentration that inhibits the measured activity by half. Consider `CCc1c(F)ccc2cc(O)cc(-c3nc4c5c(nc(OC[C@@]67CCCN6C[C@H](F)C7)nc5c3F)N3C[C@H]5CC[C@H](N5)[C@H]3CO4)c12` [Compound represented by formula I, 5-Ethyl-6-fluoro-4-((5aS,6S,9R)-1-fluoro-12-(((2R,7aS)-2-fluorotetrahydro-1H-pyrrolizin-7a(5H)-yl)methoxy)-5a,6,7,8,9,10-hexahydro-5H-4-oxa-3,10a,11,13,14-pentaaza-6,9-methanonaphtho[1,8-ab]heptalen-2-yl)naphthalen-2-ol], for which the dissociation constant (Kd) was found to be 0.03 nM in test [1] and 1.54 nM at KRAS protein subtype WT. Further, the figures for the 50% inhibitory concentration (IC50) (in the test with AGS cells; with GP2d cells; in test [2]) were 5.8 nM, 0.9 nM and 0.4 nM, respectively.

The record behind these values is patent EP4563151A1, “PHARMACEUTICAL COMPOSITION COMPRISING KRAS G12D INHIBITOR” (Jiangsu Hengrui Pharmaceuticals Co., Ltd., priority 2022, dated 2024).
